Here are results for one compound from patent publication US20030018176A1, “Dry acid-chitosan complexes” (priority 1999, published 2003).

Series [1] in a line: Fat binding feeding study in rats on formulated high fat diet.
Experimental: (§1) All rats were fed a basal diet for 5 days prior to initiation of dosing on Day 0. At Day 0, animals in Groups 1 to 5 and 7 received the appropriate formulated diet. The diet was available ad libitum. […] The total amount of the diet consumed by each animal was determined every 3 to 4 days.
The conditions of series [2]: rat, in vivo.
Experimental: as §1

`CCCCCCCCCCC[C@@H](C[C@@H]1OC(=O)[C@H]1CCCCCC)OC(=O)[C@H](CC(C)C)NC=O` [Xenical] had a Triglycerides in series [1] (blood of rats, test article in diet) of 107 mg/dL. The “Weight Gain” value in series [1] (rats, test article in diet ad libitum) is on record as 425 gms. In series [2], this compound came in with an ALT of 54 IU/L, an AST of 104 IU/L and a Bilirubin of 0.4 mg/dL.
